Experimental findings from patent publication US12145944B2, “Imidazopyrimidines as EED inhibitors and the use thereof” (THE REGENTS OF THE UNIVERSITY OF MICHIGAN, priority 2019, dated 2024) are described below.

Molecules are shown by their SMILES. Where only a bound is given, the exact number is not on record here.

Experiment [1] relates to KARPAS422 human B cell lymphoma cell. Put plainly: Cell proliferation, KARPAS422, 7 day treatment (WST-8). The format is cell-based. To be noted: Homo sapiens, KARPAS-422, 168 h, anti-proliferative IC50 class, Karpas 422 cell line, 7 day treatment; read-out: Karpas Cell line. In a few lines:
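Read-out was WST-8 absorbance at 450 nm after 1-4 h with reagent, taken after 7-day compound treatment (serial dilutions, 37 °C, 5% CO2) of 2 000-3 000 KARPAS422 cells per well. IC50 fitted by nonlinear regression on DMSO-normalized values.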
For orientation: Tetrazolium dyes change colour on reduction, which living cells bring about.

A further experiment deals with Pfeiffer cell line. Put plainly: Anti-proliferative activity, Pfeiffer cell line, 7 day treatment. The format is cell-based. Conditions: Homo sapiens, 168 h; anti-proliferative IC50 class, Pfeiffer cell line, 7 day treatment; read-out: Pfeiffer Cell line. As for the experimental part: “N/A” stands for “not assessed”.
To assess the effect of PRC2 inhibition on cell growth, cells were seeded in 96-well cell culture plates at a density of 2 000-3 000 cells/well in 200 µL of culture medium, and treated with serially diluted compounds for 7 days at 37° C. in an atmosphere of 5% CO2. Cell growth was evaluated by a […] WST-8 assay (Dojindo Molecular Technologies) using a Tecan Infinite M1000 multimode microplate reader (Tecan, Morrisville, NC). The WST-8 reagent was added to the plate, incubated for 1-4 h, and read at 450 nm. The readings were normalized to the DMSO-treated cells, and the IC50 was calculated by nonlinear regression analysis using GraphPad Prism 6 software

Consider `CC(C)c1ccc2c(n1)CN(CC(F)(F)F)C(=O)c1ncn3c(NCc4c(F)ccc5c4CCO5)ncc-2c13` [E 15, 12-(((5-fluoro-2,3-dihydrobenzofuran-4-yl)methyl)amino)-7-isopropyl-4-(2,2,2-trifluoroethyl)-4,5-dihydro-3H-2,4,6,11,12a-pentaazabenzo[4,5]cycloocta[1,2,3-cd]inden-3-one], for which the IC50 (in experiment [1]; with Pfeiffer cell line) was less than 10 nM in each case.
With `CCc1ccc2c(n1)CN(CC(C)(F)F)C(=O)c1ncn3c(NCc4c(F)ccc5c4CCO5)ncc-2c13` [E 16, 4-(2,2-difluoropropyl)-7-ethyl-12-(((5-fluoro-2,3-dihydrobenzofuran-4-yl)methyl)amino)-4,5-dihydro-3H-2,4,6,11,12a-pentaazabenzo[4,5]cycloocta[1,2,3-cd]inden-3-one], the IC50 (in experiment [1]; in the experiment with Pfeiffer cell line) was less than 10 nM each time.
For the compound `Cc1cnc2n1Cc1ncccc1-c1cnc(NCc3c(F)ccc4c3CCO4)n3cnc-2c13` [E 17, N-((5-fluoro-2,3-dihydrobenzofuran-4-yl)methyl)-5-methyl-6H-2,3,5a,7,12,13a-hexaazabenzo[4,5]cyclopenta[7,8]cycloocta[1,2,3-cd]inden-13-amine], the IC50 (in experiment [1]; with Pfeiffer cell line) was 10 to 100 nM throughout.
Consider `Cc1ccc2c(n1)Cn1c(C)cnc1-c1ncn3c(NCc4c(F)ccc5c4CCO5)ncc-2c13` [E 18, N-((5-fluoro-2,3-dihydrobenzofuran-4-yl)methyl)-5,8-dimethyl-6H-2,3,5a,7,12,13a-hexaazabenzo[4,5]cyclopenta[7,8]cycloocta[1,2,3-cd]inden-13-amine], for which the IC50 in experiment [1] was 10 to 100 nM; in the experiment with Pfeiffer cell line, less than 10 nM.
`[2H]C([2H])(Nc1ncc2c3c(ncn13)C(=O)N(CC(F)(F)F)Cc1cc(C(=O)N(C)C)ccc1-2)c1c(F)ccc2c1CCO2` [E 24, 12-(((5-fluoro-2,3-dihydrobenzofuran-4-yl)methyl-d2)amino)-N,N-dimethyl-3-oxo-4-(2,2,2-trifluoroethyl)-4,5-dihydro-3H-2,4,11,12a-tetraazabenzo[4,5]cycloocta[1,2,3-cd]indene-7-carboxamide]: the IC50 (in experiment [1]; with Pfeiffer cell line) was 10 to 100 nM in each case.
For `O=C1NCCc2ccccc2-c2cnc(NCc3c(F)ccc4c3CCO4)n3cnc1c23` [E 28, 13-(((5-fluoro-2,3-dihydrobenzofuran-4-yl)methyl)amino)-5,6-dihydro-2,4,12,13a-tetraazabenzo[4,5]cyclonona[1,2,3-cd]inden-3(4H)-one], the IC50 is greater than 100 nM in experiment [1] and 10 to 100 nM with Pfeiffer cell line.
As to `Cc1ccc2c(n1)CCNC(=O)c1ncn3c(NCc4c(F)ccc5c4CCO5)ncc-2c13` [E 29, 13-(((5-fluoro-2,3-dihydrobenzofuran-4-yl)methyl)amino)-8-methyl-5,6-dihydro-2,4,7,12,13a-pentaazabenzo[4,5]cyclonona[1,2,3-cd]inden-3(4H)-one], the IC50 (in experiment [1]; in the experiment on Pfeiffer cell line) was 10 to 100 nM each time.
`Cc1ccc2c(n1)CCN(CC(F)(F)F)C(=O)c1ncn3c(NCc4c(F)ccc5c4CCO5)ncc-2c13` [E 30, 13-(((5-fluoro-2,3-dihydrobenzofuran-4-yl)methyl)amino)-8-methyl-4-(2,2,2-trifluoroethyl)-5,6-dihydro-2,4,7,12,13a-pentaazabenzo[4,5]cyclonona[1,2,3-cd]inden-3(4H)-one]: the IC50 (in experiment [1]; with Pfeiffer cell line) was 10 to 100 nM each time.
`CC(C)N1CCc2cc(C(F)(F)F)ncc2-c2cnc(NCc3c(F)ccc4c3CCO4)n3cnc(c23)C1=O` [E 31, 13-(((5-fluoro-2,3-dihydrobenzofuran-4-yl)methyl)amino)-4-isopropyl-8-(trifluoromethyl)-5,6-dihydro-2,4,9,12,13a-pentaazabenzo[4,5]cyclonona[1,2,3-cd]inden-3(4H)-one]: the IC50 (in experiment [1]; with Pfeiffer cell line) was 10 to 100 nM throughout.
`Fc1ccc2c(c1CNc1ncc3c4c(ncn14)-c1nccn1Cc1nc(C(F)(F)F)ccc1-3)CCO2` [E 32, N-((5-fluoro-2,3-dihydrobenzofuran-4-yl)methyl)-8-(trifluoromethyl)-6H-2,3,5a,7,12,13a-hexaazabenzo[4,5]cyclopenta[7,8]cycloocta[1,2,3-cd]inden-13-amine]: the IC50 in experiment [1] was 10 to 100 nM; in the experiment on Pfeiffer cell line, less than 10 nM.
Consider `Fc1ccc2c(c1CNc1ncc3c4c(ncn14)-c1nccn1Cc1cc(C(F)(F)F)ncc1-3)CCO2` [E 33, N-((5-fluoro-2,3-dihydrobenzofuran-4-yl)methyl)-8-(trifluoromethyl)-6H-2,3,5a,9,12,13a-hexaazabenzo[4,5]cyclopenta[7,8]cycloocta[1,2,3-cd]inden-13-amine], for which the IC50 (in experiment [1]; with Pfeiffer cell line) was 10 to 100 nM each time.
On to `Cc1ccc2c(n1)Cn1ccnc1-c1ncn3c(NCc4c(F)ccc5c4CCO5)ncc-2c13` [E 34, N-((5-fluoro-2,3-dihydrobenzofuran-4-yl)methyl)-8-methyl-6H-2,3,5a,7,12,13a-hexaazabenzo[4,5]cyclopenta[7,8]cycloocta[1,2,3-cd]inden-13-amine], for which the IC50 in experiment [1] is 10 to 100 nM; in the experiment with Pfeiffer cell line it was less than 10 nM.
In the case of `Cc1onc2c1Cc1cc(C(F)(F)F)ncc1-c1cnc(NCc3c(F)ccc4c3CCO4)n3cnc-2c13` [E 35, N-((5-fluoro-2,3-dihydrobenzofuran-4-yl)methyl)-5-methyl-8-(trifluoromethyl)-6H-4-oxa-2,3,9,12,13a-pentaazabenzo[4,5]cyclopenta[7,8]cycloocta [1,2,3-cd]inden-13-amine], the IC50 (in experiment [1]; in the experiment with Pfeiffer cell line) was 10 to 100 nM each time.
With `Cc1ccc2c(n1)Cc1conc1-c1ncn3c(NCc4c(F)ccc5c4CCO5)ncc-2c13` [E 36, N-((5-fluoro-2,3-dihydrobenzofuran-4-yl)methyl)-8-methyl-6H-4-oxa-2,3,7,12,13a-pentaazabenzo[4,5]cyclopenta[7,8]cycloocta [1,2,3-cd]inden-13-amine], the IC50 (in experiment [1]; in the experiment with Pfeiffer cell line) was 10 to 100 nM in each case.
`CCc1cnc2n1Cc1cc(C(F)(F)F)ncc1-c1cnc(NCc3c(F)ccc4c3CCO4)n3cnc-2c13` [E 37, 5-ethyl-N-((5-fluoro-2,3-dihydrobenzofuran-4-yl)methyl)-8-(trifluoromethyl)-6H-2,3,5a,9,12,13a-hexaazabenzo[4,5]cyclopenta[7,8]cycloocta[1,2,3-cd]inden-13-amine]: the IC50 (in experiment [1]; in the experiment on Pfeiffer cell line) was 10 to 100 nM throughout.
Take `CCc1cnc2n1Cc1nc(C)ccc1-c1cnc(NCc3c(F)ccc4c3CCO4)n3cnc-2c13` [E 38, 5-ethyl-N-((5-fluoro-2,3-dihydrobenzofuran-4-yl)methyl)-8-methyl-6H-2,3,5a,7,12,13a-hexaazabenzo[4,5]cyclopenta[7,8]cycloocta[1,2,3-cd]inden-13-amine]: the IC50 (in experiment [1]; in the experiment on Pfeiffer cell line) was 10 to 100 nM throughout.
Turning to `Cc1ccc2c(n1)CN(CC(F)(F)F)C(=O)c1ncn3c(NCc4c(F)ccc5c4CCCO5)ncc-2c13` [E 39, 12-(((6-fluorochroman-5-yl)methyl)amino)-7-methyl-4-(2,2,2-trifluoroethyl)-4,5-dihydro-3H-2,4,6,11,12a-pentaazabenzo[4,5]cycloocta[1,2,3-cd]inden-3-one], the values for the IC50 (in experiment [1]; in the experiment on Pfeiffer cell line) were 10 to 100 nM and less than 10 nM, respectively.
Turning to `O=C1c2ncn3c(NCc4c(F)ccc5c4CCO5)ncc(c23)-c2ccc(C3CCOCC3)nc2CN1CC(F)(F)F` [E 45, 12-(((5-fluoro-2,3-dihydrobenzofuran-4-yl)methyl)amino)-7-(tetrahydro-2H-pyran-4-yl)-4-(2,2,2-trifluoroethyl)-4,5-dihydro-3H-2,4,6,11,12a-pentaazabenzo[4,5]cycloocta[1,2,3-cd]inden-3-one], the IC50 (in experiment [1]; in the experiment with Pfeiffer cell line) was less than 10 nM throughout.
`CC(C)(C)c1cc2c(cn1)-c1cnc(NCc3c(F)ccc4c3CCO4)n3cnc(c13)C(=O)N(CC(F)(F)F)C2` [E 46, 7-(tert-butyl)-12-(((5-fluoro-2,3-dihydrobenzofuran-4-yl)methyl)amino)-4-(2,2,2-trifluoroethyl)-4,5-dihydro-3H-2,4,8,11,12a-pentaazabenzo[4,5]cycloocta[1,2,3-cd]inden-3-one]: the IC50 (in experiment [1]; in the experiment with Pfeiffer cell line) was less than 10 nM each time.
On to `CC(C)c1ccc2c(n1)CN(CC(F)F)C(=O)c1ncn3c(NCc4c(F)ccc5c4CCO5)ncc-2c13` [E 47, 4-(2,2-difluoroethyl)-12-(((5-fluoro-2,3-dihydrobenzofuran-4-yl)methyl)amino)-7-isopropyl-4,5-dihydro-3H-2,4,6,11,12a-pentaazabenzo[4,5]cycloocta[1,2,3-cd]inden-3-one], for which the IC50 (in experiment [1]; in the experiment on Pfeiffer cell line) was less than 10 nM each time.
`O=C1c2ncn3c(NCc4c(F)ccc5c4CCO5)ncc(c23)-c2ccc(C3COCCO3)nc2CN1CC(F)(F)F` (centres unmarked) [E 48, 7-(1,4-dioxan-2-yl)-12-(((5-fluoro-2,3-dihydrobenzofuran-4-yl)methyl)amino)-4-(2,2,2-trifluoroethyl)-4,5-dihydro-3H-2,4,6,11,12a-pentaazabenzo[4,5]cycloocta[1,2,3-cd]inden-3-one]: the IC50 (in experiment [1]; with Pfeiffer cell line) was less than 10 nM throughout.
On to `O=C1c2ncn3c(NCc4c(F)ccc5c4CCO5)ncc(c23)-c2ccc(CC3COCCO3)nc2CN1CC(F)(F)F` (centres unmarked) [E 49, 7-((1,4-dioxan-2-yl)methyl)-12-(((5-fluoro-2,3-dihydrobenzofuran-4-yl)methyl)amino)-4-(2,2,2-trifluoroethyl)-4,5-dihydro-3H-2,4,6,11,12a-pentaazabenzo[4,5]cycloocta[1,2,3-cd]inden-3-one], for which the IC50 (in experiment [1]; with Pfeiffer cell line) was less than 10 nM each time.
